Laboratory results published in US5798379A, “UCS1025 compounds” (Kyowa Hakko Kogyo Co., Ltd., priority 1996, dated 1998).
In brackets after ≈: the same amount, converted by molar mass.

Experiments:
[1] = tested on: Staphylococcus aureus ATCC 6538P; assay: Antibacterial activity by agar dilution method; assay type: cell-based; settings: ATCC6538P, pH 7, read-out: Minimum inhibitory concentration
Method: (§1) Antibacterial activity of UCS1025A and UCS1025B against various bacteria were measured.
(§2) The antibacterial activity was measured by an agar dilution method on media (pH 7) -composed of 3 g/L of Bacto-tryptone (manufactured by Difco), 3 g/L of meat extract, 1 g/L of yeast extract, 1 g/L of glucose and 16 g/L of agar. The antibacterial activity was shown by minimum inhibitory concentration (MIC).

[2] = tested on: Proteus vulgaris ATCC 6897; assay: Antibacterial activity by agar dilution method; assay type: cell-based; settings: ATCC6897, pH 7, read-out: Minimum inhibitory concentration
Method: as §1, §2

[3] = tested on: Enterococcus hirae ATCC 10541; assay: Antibacterial activity by agar dilution method; assay type: cell-based; settings: ATCC10541, pH 7, read-out: Minimum inhibitory concentration
Method: as §1, §2

[4] = tested on: Bacillus subtilis No. 10707; assay: Antibacterial activity by agar dilution method; assay type: cell-based; settings: pH 7, read-out: Minimum inhibitory concentration
Method: as §1, §2

Solubility = assay type: physicochemical
[5] = tested on: human mammary carcinoma MCF-7; assay: Growth inhibition against human mammary carcinoma MCF-7 cells (MTT); assay type: cell-based; settings: MCF7, 72 hours
Method: (§3) Growth inhibition against human mammary carcinoma MCF-7, human cystocarcinoma T24, human epidermoid carcinoma A431 and human renal carcinoma ACHN cells:
(§4) Respective cells were dispensed into a 96 well microtiter plate (Nunc #167008) in 1×10^3 cells/well portions in the case of MCF-7 and T24 or in 1.5×lO^3 cells/well portions in the case of A431 and ACHN and cultured at 37° C. for 24 hours in a 5% carbon dioxide incubator. Thereafter, 30 mM of UCS1025A and 30 mM of UCS1025B were each serially diluted and added to the wells in 50 μl portions. The final concentration of each solution becomes 100 μM at the maximum at this stage. They were cultured again at 37° C. for 72 hours in the 5% carbon dioxide incubator. Five hours prior to the completion of the culturing, MTT [3-(4,5-dimethylthiazo-2-yl)-2,5-diphenyltetrazolium bromide, Sigma] which had been dissolved in the culture to a final concentration of 1 mg/ml was dispensed into the plate in 50 μl/well portions. After completion of the culturing, DMSO was dispensed in 150 μl/well portions, and the resulting plate was stirred vigorously using a plate mixer to dissolve MTT-formazan crystals completely. Thereafter, absorbance at 550 nm was measured using a microplate spectrophotometer M-SPmax250 (manufactured by Wako Pure Chemical Industries). The cell growth inhibition activity was shown by the 50% inhibitory concentration IC50

[6] = tested on: human renal carcinoma ACHN; assay: Growth inhibition against human renal carcinoma ACHN cells (MTT); assay type: cell-based; settings: 72 hours
Method: as §3, §4

human cystocarcinoma T24 = assay: Growth inhibition against human cystocarcinoma T24 cells (MTT); assay type: cell-based; settings: T-24, 72 hours
Method: as §3, §4

[7] = tested on: human epidermoid carcinoma A431; assay: Growth inhibition against human epidermoid carcinoma A431 cells (MTT); assay type: cell-based; settings: A-431, 72 hours
Method: as §3, §4

[8] = in methanol, ethyl acetate, chloroform, dimethylsulfoxide (DMSO)

Row | MIC [1] | MIC [2] | MIC [3] | MIC [4] | Solubility (Solubility; in hexane) | Solubility (Solubility; [8]) | IC50 [5] | IC50 [6] | IC50 (human cystocarcinoma T24) | IC50 [7] | Compound
1 | 42 µg/mL (≈ 112 µM) | 83 µg/mL (≈ 221 µM) | 42 µg/mL (≈ 112 µM) | 83 µg/mL (≈ 221 µM) | hardly soluble | Soluble | > 100 µM | > 100 µM | > 100 µM | > 100 µM | CC1C=CC2CCCCC2C1C(=O)C1(O)C(=O)N2CCC3C(=O)OC1C32O (centres unmarked) [UCS1025B]
2 | 1.3 µg/mL (≈ 3.62 µM) | 5.2 µg/mL (≈ 14.5 µM) | 1.3 µg/mL (≈ 3.62 µM) | 1.3 µg/mL (≈ 3.62 µM) | hardly soluble | Soluble | 21 µM | 58 µM | 51 µM | 55 µM | CC1C=CC2CCCCC2C1C(=O)C1C(=O)N2CCC3C(=O)OC1C32O (centres unmarked) [UCS1025A]
